Laboratory results reported in ChEMBL document CHEMBL4316584, “All that glitters is not gold: Panning cytotoxic natural products and derivatives with a fused tricyclic backbone by the estimation of their leadlikeness for cancer treatment” (Eur J Med Chem, 2019).

system: HepG2; test: Cytotoxicity against human HepG2 cells after 48 hrs by MTT assay; assay type: functional, cell-based; conditions: HepG2, 48 h

Row | Structure (SMILES) | IC50 [µM]
1 | O=c1c2ccc(O)cc2oc2cccc(O)c12 | 18.4
2 | O=c1c2ccccc2oc2cc(O)cc(O)c12 | 19.5
3 | CC(C)=CCC/C(C)=C/COc1cc(O)c2c(c1)C(=O)c1cc(C)cc(O)c1C2=O | 15
4 | CN(C)CCNC1=CC(=O)c2c(O)c3c(c(O)c2C1=O)C[C@](C)(O)[C@H](O)C3 | 2.26
5 | CCn1c2ccccc2c2cc(C3=NCCc4c3[nH]c3ccccc43)ccc21 | 2.3
6 | O=C(NCCN1CCOCC1)c1cc(O)c2c(c1)C(=O)c1cc(O)cc(O)c1C2=O | 20
7 | CCSC1=C(SCC)C(=O)c2c(O)c3c(c(O)c2C1=O)C[C@@H](O)[C@@](C)(O)C3 | 11.6
8 | C[C@]1(O)Cc2c(O)c3c(c(O)c2C[C@H]1O)C(=O)C=C(NCc1ccccc1)C3=O | 13.4
9 | Cc1ccc(C2C3=C(CC(C)(C)CC3=O)N(c3ccc(Cl)cc3)C3=C2C(=O)CC(C)(C)C3)cc1 | 9.34
10 | C#CCNC1=CC(=O)c2c(O)c3c(c(O)c2C1=O)C[C@](C)(O)[C@H](O)C3 | 10.9
11 | CC(C)=CCc1c(O)cc2oc3cccc(O)c3c(=O)c2c1O | 1.49
12 | CC(C)=CCc1c(O)cc2oc3ccccc3c(=O)c2c1O | 9.81
13 | O=C1c2cccc(O)c2C(=O)c2c(O)cc(Cn3ccc(=O)[nH]c3=O)cc21 | 3.9
14 | COc1cc(O)c2c(c1O)C(=O)C1=C(C[C@@H](O)[C@@](C)(O)C1)C2=O | 9.99
15 | O=C(NCCN1CCCCC1)c1cc(O)c2c(c1)C(=O)c1cc(O)cc(O)c1C2=O | 19
16 | Cc1cc(O)c2c(c1)C(=O)c1cc(O)c(CN3CCN(c4ccc(F)cc4)CC3)c(O)c1C2=O | 10.4
17 | CCOP(=O)(OCC)C(C)(CCc1ccccc1)NC(=O)c1cc(O)c2c(c1)C(=O)c1cccc(O)c1C2=O (centres undefined) | 8.82
18 | CCOP(=O)(OCC)C(C)(NC(=O)c1cc(O)c2c(c1)C(=O)c1cccc(O)c1C2=O)c1ccc(C)cc1 (centres undefined) | 15.1
19 | O=c1c2cc(O)ccc2oc2cc(O)cc(O)c12 | 18.3
20 | CCOP(=O)(OCC)C(C)(NC(=O)c1cc(O)c2c(c1)C(=O)c1cccc(O)c1C2=O)c1ccccc1 (centres undefined) | 18.2
21 | CCCCCCOc1cccc2c1C(=O)c1c(OCCCCCC)cc(Cn3cc(C)c(=O)[nH]c3=O)cc1C2=O | 4.2
22 | Cc1cc(O)c2c(c1)C(=O)c1cc(O)c(CN3CCOCC3)c(O)c1C2=O | 17.9
23 | CCCNC1=CC(=O)c2c(O)c3c(c(O)c2C1=O)C[C@](C)(O)[C@H](O)C3 | 9.98
24 | CC(C)=CCc1c(O)c(CC=C(C)C)c2oc3cc(O)ccc3c(=O)c2c1O | 18.7
25 | CCN(CC)CCOc1cc(O)c2c(c1)C(=O)c1cc(C)cc(O)c1C2=O | 5.64
26 | C[C@]1(O)Cc2c(O)c3c(c(O)c2C[C@H]1O)C(=O)C=C(N1CCC(c2ccccc2)CC1)C3=O | 11.8
27 | COc1ccc(CNC2=CC(=O)c3c(O)c4c(c(O)c3C2=O)C[C@](C)(O)[C@H](O)C4)cc1 | 10.1

system: KB; test: Cytotoxicity against human KB cells after 48 hrs by MTT assay; assay type: functional, cell-based; conditions: not given

Row | Structure (SMILES) | IC50 [µM]
28 | COc1cc2oc3cc(O)c(CC=C(C)C)c(O)c3c(=O)c2c(CC=C(C)C)c1OC | 12.8
29 | N#CC1=C(N)Oc2ccc3ccccc3c2C1c1ccc(Cl)cc1 (centres undefined) | 11.7
30 | COc1c(O)cc2oc3cc(O)c(CC=C(C)C)c(O)c3c(=O)c2c1CC=C(C)C [MANGOSTIN] | 14.1

system: A549; test: Cytotoxicity against human A549 cells after 48 hrs by MTT assay; assay type: functional, cell-based; conditions: Homo sapiens, A549, 48 h

Row | Structure (SMILES) | IC50 [µM]
31 | COc1cc(-c2nc(/C=C/C(=O)c3ccc(N)cc3)cc3c2[nH]c2ccccc23)cc(OC)c1OC | 11.8
32 | COc1ccnc2c1C(=O)C1N=CC=C(c3ccccc3)C1C2=O (centres undefined) | 10.6
33 | O=C1c2c(O)ccc(O)c2C(=O)c2c(NCCNCCO)ccc(NCCNCCO)c21 [MITOXANTRONE] | 7.25
34 | O=C(/C=C/c1cc2c([nH]c3ccccc32)c(-c2ccc(F)cc2)n1)c1ccc(F)cc1 | 5.65
35 | COc1cc(-c2nc(/C=C/C(=O)c3ccco3)cc3c2[nH]c2ccccc23)cc(OC)c1OC | 3.8
36 | C=C[C@@]1(C)C=C2[C@@H](O[C@@H]3O[C@H](C)[C@H](O)[C@H](O)[C@H]3O)C[C@@H]3C(C)(C)[C@H](O[C@@H]4O[C@@H](C)[C@H](O)[C@@H](O)[C@H]4OC(C)=O)CC[C@@]3(C)[C@@H]2CC1 | 10.4

system: MCF7; test: Cytotoxicity against human MCF7 cells after 48 hrs by MTT assay; assay type: functional, cell-based; conditions: MCF7, 48 h

Row | Structure (SMILES) | IC50 [µM]
37 | O=C1C(=O)c2cccnc2-c2ncccc21 | 0.58
38 | C#CCOc1cc(O)c2c(c1)C(=O)c1cc(C)cc(O)c1C2=O | 20
39 | C[C@]1(O)Cc2c(O)c3c(c(O)c2[C@H](O)[C@H]1O)C(=O)C(SCCO)=C(SCCO)C3=O | 14.4
40 | CC(CO)c1cc(O)c2c(c1)[C@@H](O)C[C@H]1C(C)(C)CCC[C@]1(O)C2 (some centres undefined) | 15.8
41 | COc1cc(O)c2c(c1O)C(=O)C1=C(C2=O)C(O)C(O)C(C)(O)C1 (centres undefined) | 7.5
42 | CNC1=CC(=O)c2c(O)c3c(c(O)c2C1=O)C[C@](C)(O)[C@H](O)[C@H]3O | 3.58
43 | COc1ccc2oc3ccccc3c(=O)c2c1O | 16.5
44 | COC(=O)c1ccc2c(=O)c3c(O)cc(CCO)cc3oc2c1O | 2.7
45 | C=C[C@@]1(C)C=C2[C@@H](O[C@@H]3O[C@H](C)[C@H](O)[C@H](O)[C@H]3O)C[C@@H]3C(C)(C)[C@H](O[C@@H]4O[C@@H](C)[C@H](O)[C@@H](O)[C@H]4O[C@H]4O[C@H](C)[C@H](O)[C@H](O)[C@H]4O)CC[C@@]3(C)[C@@H]2CC1 | 4.7
46 | CC(CO)c1cc(O)c2c(c1)CC[C@H]1C(C)(C)CCC[C@]1(O)C2 (some centres undefined) | 10.8
47 | COc1cc(C(=O)/C=C/c2cc3c([nH]c4ccccc43)c(-c3ccc(F)c(F)c3)n2)cc(OC)c1OC | 8.7
48 | CCCCSC1=C(SCCCC)C(=O)c2c(O)c3c(c(O)c2C1=O)C[C@](C)(O)[C@H](O)[C@H]3O | 2.45
49 | CCCCCCNC1=CC(=O)c2c(O)c3c(c(O)c2C1=O)C[C@](C)(O)[C@H](O)[C@H]3O | 4.87
50 | CCCCNC1=CC(=O)c2c(O)c3c(c(O)c2C1=O)C[C@](C)(O)[C@H](O)[C@H]3O | 1.08
51 | COC1=C(C)C(O)=CC2C(=O)c3c(ccc(OC)c3OC)C(=O)C12 (centres undefined) | 10.2
52 | C=C[C@@]1(C)C=C2[C@@H](O[C@@H]3O[C@H](C)[C@H](O)[C@H](O)[C@H]3O)C[C@@H]3C(C)(C)[C@H](O[C@@H]4O[C@@H](C)[C@H](O)[C@@H](O)[C@H]4O)CC[C@@]3(C)[C@@H]2CC1 | 10.2
53 | COc1cc(O)c2c(c1O)C(=O)C1=C(C[C@@H](O)[C@@](C)(O)C1)C2=O | 2.69
54 | C=C[C@@]1(C)C=C2[C@@H](O[C@@H]3O[C@H](C)[C@H](O)[C@H](O)[C@H]3O)C[C@@H]3C(C)(C)[C@H](O[C@@H]4O[C@@H](C)[C@H](O)[C@@H](O)[C@H]4O[C@H]4O[C@H](CO)[C@@H](O)[C@H](O)[C@H]4O)CC[C@@]3(C)[C@@H]2CC1 | 5.6
55 | COc1cc(-c2nc(/C=C/C(=O)c3ccc(N)cc3)cc3c2[nH]c2ccccc23)cc(OC)c1OC | 14.6
56 | C[C@]1(O)Cc2c(O)c3c(c(O)c2[C@H](O)[C@H]1O)C(=O)C=C(N1CCCCC1)C3=O | 3.14
57 | COc1ccc(CNC2=CC(=O)c3c(O)c4c(c(O)c3C2=O)C[C@](C)(O)[C@H](O)[C@H]4O)cc1 | 9.17
58 | CC(CO)c1cc2c(c(O)c1O)C[C@@]1(O)CCCC(C)(C)[C@@H]1CC2 (some centres undefined) | 16
59 | C[C@]1(O)Cc2c(O)c3c(c(O)c2[C@H](O)[C@H]1O)C(=O)C=C(N1CCC(c2ccccc2)CC1)C3=O | 4.81
60 | Nc1ccc(C(=O)/C=C/c2cc3c([nH]c4ccccc43)c(-c3ccc(F)c(F)c3)n2)cc1 | 10.5
61 | Cc1cc(O)c2c(c1)C(=O)c1cc(OCCN(C)C)cc(O)c1C2=O | 4.5
62 | COc1cc(O)c(C(CO)C(O)CO)c2oc3cccc(O)c3c(=O)c12 (centres undefined) | 9.7
63 | COC(=O)c1cccc2oc3cc(CCO)cc(O)c3c(=O)c12 | 4.6
64 | CCCNC1=CC(=O)c2c(O)c3c(c(O)c2C1=O)C[C@](C)(O)[C@H](O)[C@H]3O | 14
